Reference: US20190167771A1, “CONTROL ANGIOGENESIS BY REGULATING PHOSPHORYLATION OF SERYL-tRNA SYNTHETASE (SerRS)” (The Scripps Research Institute, priority 2016, published 2019)

Test system: MDA-MB-231 cells
Assay: MDA-MB-231 tumor xenograft model, tumor angiogenesis and growth
Assay type: in vivo, mouse
Conditions: for tumor angiogenesis (CD31 staining): MDA-MB-231 stably transfected with human SerRS gene (~10-fold overexpression), NSG mice, two weeks
Source text: In FIG. 5A, human breast cancer cells MDA-MB-231 were stably transfected with human wild type (SerRS^WT) and mutant SerRS (SerRS^AA, SerRS^DD). The expression of SerRS was monitored by immunoblot. In FIGS. 5B-C, the engineered MDA-MB-231 cells (10^6 per mouse) were implanted into mouse fat pad in mammal glands to form tumor xenografts. 14 days later, tumor xenografts were excised and subjected to immunohistochemistry for CD31 (FIG. 5B) and subsequent quantification of blood vessels (FIG. 5C) (n=5-6). In FIGS. 5D-F, MDA-MB-231 cells (10^6 per mouse) stably transfected with SerRS^WT, SerRS^AA, HIF1-specific shRNA (HIF^KD), both SerRS^AA and HIF^KD or empty vector were implanted into mouse fat pad in mammal glands. The sizes of the tumor xenografts were measured until the mice were sacrificed on 35 days (FIG. 5D) and the tumor angiogenesis was measured by immunohistochemistry for CD31 (FIG. 5E) and VEGFA (FIG. 5F) (n=4-10). Scale bars represent 100 μm.
[…] MDA-MB-231 cells stably transfected with vectors expressing wild type human SerRS, SerRS^S101A/S241A, or SerRS^S101D/S241D were subcutaneously injected into the mammal glands of 6-8-week-old female NOD.Cg-Prkdc^scidIl2rg^tmJWjl/SzJ mice (six mice in each group) (Jackson Laboratory). 14 days after injection, the tumor xenograft were separated from mice and frozen in Tissue-Tek® OCT compound for cryostat sectioning.
5-μm sections from freshly frozen tumor xenograft and matrigel plugs were treated with acetone and 3% H2O2 to block endogenous peroxidase. After 3-5 times wash and goat serum block, the sections were incubated with an anti-CD31 antibody (1:3000; Cell Signaling Technology) overnight at 4° C. The blood vessels were counted in 5-10 random viable fields (120×) in tumor xenograft samples and microvessel density in matrigel plugs was quantified by measuring the CD31 staining density using Image J software. To detect the hypoxia, we incubated the slides with anti-HIF1α antibody (1:100; Novus Biologicals).
This example describes experiments studying the activity of SerRS^S101A/S241A and the effect of SerRS phosphorylation in hypoxia-induced angiogenesis in mammal.
Because hypoxia-induced angiogenesis is critical for solid tumor growth, experiments were performed to determine if hypoxia-induced SerRS phosphorylation/inactivation is important for tumor angiogenesis. Human breast cancer cells MDA-MB-231 were stably transfected with human SerRS^WT, SerRS^S101A/S241A, or SerRS^S101D/S241D gene to give high levels of overexpression (˜10-fold) compare to that of the endogenous protein (FIG. 4D). The engineered cells were implanted subcutaneously into the mammal glands of immune deficient NOD scid gamma (NSG) mice. Two weeks later, the vasculature in the tumor xenografts were examined by CD31 staining (FIGS. 4E and 4F). […]

| Substance | tumor angiogenesis (CD31 staining) | angiogenesis and tumor growth compared with HIF-1 knockdown (murine model of triple negative human breast cancer, overexpression) |
| --- | --- | --- |
| SerRS^S101A/S241A: phosphorylation-deficient human SerRS double mutant, serine 101 and 241 to alanine, SEQ ID NO: 4 (mouse version in matrigel assay) | much stronger inhibition of angiogenesis compared to SerRS^WT | suppress angiogenesis and tumor growth much more robustly than the knockdown of HIF-1 |
| SerRS^S101D/S241D: SerRS with double substitutions of S101 and S241 with aspartic acid, mimics the phosphorylated SerRS | strong activity in promoting tumor angiogenesis | – |
| SerRS^WT: wildtype human seryl-tRNA synthetase protein, SEQ ID NO: 1 (mouse wild type used in the 3B11 matrigel assay) | suppressed tumor angiogenesis | – |
